# ChEMBL document CHEMBL3864157, “The synthesis and antistaphylococcal activity of dehydroabietic acid derivatives: Modifications at C-12” (2016)
# Legend:
# Format in all cases: functional
# [1] = tested on: Staphylococcus aureus; assay: Antibacterial activity against gentamicin-resistant Staphylococcus aureus NRS-108
# [2] = tested on: Staphylococcus aureus; assay: Antibacterial activity against linezolid-resistant Staphylococcus aureus NRS-271
# [3] = tested on: Staphylococcus aureus; assay: Antibacterial activity against erythromycin-resistant Staphylococcus aureus NRS-70
# [4] = tested on: Staphylococcus aureus; assay: Antibacterial activity against oxacillin/tetracycline-resistant Staphylococcus aureus NRS-100
# [5] = tested on: Staphylococcus aureus; assay: Antibacterial activity against aminoglycosides/tetracycline-resistant Staphylococcus aureus NRS-1
# [6] = tested on: Staphylococcus aureus; assay: Antibacterial activity against Staphylococcus aureus Newman
compound,measurement,setting,value
CN(C)[C@@H]1C(O)=C(C(N)=O)C(=O)[C@@]2(O)C(O)=C3C(=O)c4c(O)cccc4[C@@](C)(O)[C@H]3C[C@@H]12 [TETRACYCLINE],MIC,[1],< 0.2 µg/mL
same,MIC,[2],< 0.2 µg/mL
same,MIC,[3],< 0.2 µg/mL
same,MIC,[4],< 0.2 µg/mL
same,MIC,[5],> 25 µg/mL
same,MIC,[6],< 0.2 µg/mL
CCCC(=NO)c1cc2c(cc1C(C)C)CC[C@H]1[C@](C)(C(=O)O)CCC[C@]21C,MIC,[6],40 to 50 µg/mL
CC(C)C(=NOCc1ccccc1)c1cc2c(cc1C(C)C)CC[C@H]1[C@](C)(C(=O)O)CCC[C@]21C,MIC,[6],> 50 µg/mL
CCCC(=NOC)c1cc2c(cc1C(C)C)CC[C@H]1[C@](C)(C(=O)O)CCC[C@]21C,MIC,[6],40 to 50 µg/mL
CON=C(c1cccs1)c1cc2c(cc1C(C)C)CC[C@H]1[C@](C)(C(=O)O)CCC[C@]21C,MIC,[6],6.25 to 12.5 µg/mL
C#CCON=C(c1cccs1)c1cc2c(cc1C(C)C)CC[C@H]1[C@](C)(C(=O)O)CCC[C@]21C,MIC,[6],1.56 to 3.13 µg/mL
C=CCON=C(CCC)c1cc2c(cc1C(C)C)CC[C@H]1[C@](C)(C(=O)O)CCC[C@]21C,MIC,[6],10 to 12.5 µg/mL
C=CCON=C(c1ccc(Cl)cc1Cl)c1cc2c(cc1C(C)C)CC[C@H]1[C@](C)(C(=O)O)CCC[C@]21C,MIC,[1],12.5 µg/mL
same,MIC,[2],> 25 µg/mL
same,MIC,[3],1.56 to 3.13 µg/mL
same,MIC,[4],12.5 to 25 µg/mL
same,MIC,[5],> 25 µg/mL
same,MIC,[6],1.56 to 3.13 µg/mL
CC(C)c1cc2c(cc1C(=NO)c1ccccc1C(F)(F)F)[C@@]1(C)CCC[C@@](C)(C(=O)O)[C@@H]1CC2,MIC,[1],1.56 to 3.13 µg/mL
same,MIC,[2],1.56 to 3.13 µg/mL
same,MIC,[3],1.56 to 3.13 µg/mL
same,MIC,[4],1.56 to 3.13 µg/mL
same,MIC,[5],1.56 to 3.13 µg/mL
same,MIC,[6],1.56 to 3.13 µg/mL
CON=C(c1ccccc1)c1cc2c(cc1C(C)C)CC[C@H]1[C@](C)(C(=O)O)CCC[C@]21C,MIC,[6],5 µg/mL
C=CCON=C(c1cc2c(cc1C(C)C)CC[C@H]1[C@](C)(C(=O)O)CCC[C@]21C)c1ccccc1C(F)(F)F,MIC,[1],6.25 to 12.5 µg/mL
same,MIC,[2],> 50 µg/mL
same,MIC,[3],1.56 to 3.13 µg/mL
same,MIC,[4],6.25 to 12.5 µg/mL
same,MIC,[5],12.5 to 25 µg/mL
same,MIC,[6],0.78 to 1.56 µg/mL
CCC(=NO)c1cc2c(cc1C(C)C)CC[C@H]1[C@](C)(C(=O)O)CCC[C@]21C,MIC,[6],> 50 µg/mL
CCC(=NOCc1ccccc1)c1cc2c(cc1C(C)C)CC[C@H]1[C@](C)(C(=O)O)CCC[C@]21C,MIC,[6],> 50 µg/mL
C=CCON=C(c1ccccc1)c1cc2c(cc1C(C)C)CC[C@H]1[C@](C)(C(=O)O)CCC[C@]21C,MIC,[1],1.56 to 2.5 µg/mL
same,MIC,[2],1.56 to 2.5 µg/mL
same,MIC,[3],1.25 to 1.56 µg/mL
same,MIC,[4],1.56 to 2.5 µg/mL
same,MIC,[5],2.5 to 3.13 µg/mL
same,MIC,[6],1.25 to 2.5 µg/mL
CC(C)c1cc2c(cc1C(=NO)c1cccc(C(F)(F)F)c1)[C@@]1(C)CCC[C@@](C)(C(=O)O)[C@@H]1CC2,MIC,[1],3.13 to 6.25 µg/mL
same,MIC,[2],3.13 to 6.25 µg/mL
same,MIC,[3],1.56 to 3.13 µg/mL
same,MIC,[4],3.13 to 6.25 µg/mL
same,MIC,[5],3.13 to 6.25 µg/mL
same,MIC,[6],1.56 to 3.13 µg/mL
C/C(=N\O)c1cc2c(cc1C(C)C)CC[C@H]1[C@](C)(C(=O)O)CCC[C@]21C,MIC,[6],> 50 µg/mL
CO/N=C(/c1cc2c(cc1C(C)C)CC[C@H]1[C@](C)(C(=O)O)CCC[C@]21C)C(C)C,MIC,[6],30 to 40 µg/mL
C=CCON=C(c1cccs1)c1cc2c(cc1C(C)C)CC[C@H]1[C@](C)(C(=O)O)CCC[C@]21C,MIC,[6],25 to 50 µg/mL
CC(C)C(=NO)c1cc2c(cc1C(C)C)CC[C@H]1[C@](C)(C(=O)O)CCC[C@]21C,MIC,[6],> 50 µg/mL
CC(C)c1cc2c(cc1C(=NO)c1ccccc1)[C@@]1(C)CCC[C@@](C)(C(=O)O)[C@@H]1CC2,MIC,[6],10 to 12.5 µg/mL
CC(C)c1cc2c(cc1C(=NO)c1ccc(Cl)cc1Cl)[C@@]1(C)CCC[C@@](C)(C(=O)O)[C@@H]1CC2,MIC,[1],1.56 to 3.13 µg/mL
same,MIC,[2],1.56 to 3.13 µg/mL
same,MIC,[3],1.56 to 3.13 µg/mL
same,MIC,[4],3.13 µg/mL
same,MIC,[5],3.13 µg/mL
same,MIC,[6],1.56 to 3.13 µg/mL
C=CCON=C(c1cc2c(cc1C(C)C)CC[C@H]1[C@](C)(C(=O)O)CCC[C@]21C)C1CCCCC1,MIC,[6],12.5 to 25 µg/mL
C#CCO/N=C(\C)c1cc2c(cc1C(C)C)CC[C@H]1[C@](C)(C(=O)O)CCC[C@]21C,MIC,[6],> 50 µg/mL
C/C(=N\OCc1ccccc1)c1cc2c(cc1C(C)C)CC[C@H]1[C@](C)(C(=O)O)CCC[C@]21C,MIC,[6],> 50 µg/mL
C=CCON=C(c1cccc(C(F)(F)F)c1)c1cc2c(cc1C(C)C)CC[C@H]1[C@](C)(C(=O)O)CCC[C@]21C,MIC,[6],> 50 µg/mL
C#CCON=C(c1ccc(Cl)cc1Cl)c1cc2c(cc1C(C)C)CC[C@H]1[C@](C)(C(=O)O)CCC[C@]21C,MIC,[1],12.5 µg/mL
same,MIC,[2],12.5 to 25 µg/mL
same,MIC,[3],1.56 to 3.13 µg/mL
same,MIC,[4],12.5 to 25 µg/mL
same,MIC,[5],> 25 µg/mL
same,MIC,[6],1.56 to 3.13 µg/mL
